Results published in patent US20260308159A1, “BICYCLIC HETEROARYLAMIDES HAVING GPR68 MODULATING ACTIVITY” (RECURSION PHARMACEUTICALS, INC., priority 2023, published 2026).

What follows are compounds tested against T1, human GPR68 (Homo sapiens, UniProt Q15743) (assay: GPR68 Biochemical Assay (Promega GloSensor cAMP assay, GPR68 antagonism)). Details: HEK293T cells transiently expressing hGPR68, antagonism of pH 5.5 stimulated cAMP, 15 min, read-out: hGPR68 IC50.
T1 construct: encoding full-length human GPR68 (uniprot ID: Q15743); expressed in transfected cells; host or cells: HEK293T
T1 sequence (Q15743 whole entry): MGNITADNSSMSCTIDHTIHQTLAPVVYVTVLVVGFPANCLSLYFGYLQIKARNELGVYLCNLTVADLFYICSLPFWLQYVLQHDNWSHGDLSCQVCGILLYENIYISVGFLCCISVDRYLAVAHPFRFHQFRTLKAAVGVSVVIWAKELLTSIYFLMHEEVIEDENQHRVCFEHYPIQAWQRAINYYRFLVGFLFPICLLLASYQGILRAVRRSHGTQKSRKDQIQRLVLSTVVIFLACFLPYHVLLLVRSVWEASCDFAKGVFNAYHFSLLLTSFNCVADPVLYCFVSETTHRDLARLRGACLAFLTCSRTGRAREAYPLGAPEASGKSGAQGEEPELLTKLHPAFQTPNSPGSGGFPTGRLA
Type: cell-based
Protocol: GPR68 antagonism was determined using the Promega GloSensor™ CAMP assay (F. I. Wang et al., Methods 2021, S1046-2023 (21) 00249-8). HEK293T cells (obtained from ECACC, Cat 12022001, Lot no. 17E044) were cultured in T175 flasks (Greiner, Cat 660175) in DMEM (Gibco, Cat 11995-065) supplemented with 10% Fetal Bovine Serum (Gibco Cat 16000-044), and 100 u/mL Pen-Strep (Gibco, Cat 15140) at 37° C. and 5% CO2. GPR68 expression was achieved by transient transfection with a mammalian expression plasmid encoding full-length human GPR68 (uniprot ID: Q15743) under control of a CMV promoter. The day before transfection, cell media was aspirated and HEK293T cells were incubated with accutase (Sigma, Cat A6964) for 3-4 minutes 37° C. and 5% CO2 before being manually detached with excess DMEM and trituration. Cell density was determined by automated cell counting (Countess, Invitrogen) and adjusted to 6×10^6 cells/20 mL and transferred to 15 cm dishes (Thermo Fisher, Cat 130183) for overnight incubation at 37° C. and 5% CO2. The next day separate mammalian expression plasmids encoding hGPR68 (4 μg) and Promega GloSensor (8 μg) were diluted to 1 mL in Opti-MEM (Thermo Fisher Scientific, Cat 31985070) and incubated with 30 μL of lipofectamine 3000 (also diluted to 1 mL in Opti-MEM) for 15 minutes at room temperature and subsequently added dropwise to the plated cells. Post transfection cells were then incubated at 37° C. and 5% CO2 for at least 16 hours before transfer to assay plates the following day. Transfer was conducted by washing cells with PBS and incubating with accutase for 3-4 minutes 37° C. and 5% CO2 before being manually detached with excess DMEM and mild trituration. The suspension was then centrifuged at 192 RCF for 4 minutes in a 50 mL centrifuge tube (Greiner, Cat 227261).
Supernatant was removed by aspiration and the cell pellet was resuspended in DMEM+1% dialysed FBS (Gibco, Cat 26400-044) and 100 u/mL Pen-Strep to a cell density of 500 cells/μL. Cells were plated into poly-L-Lysine coated 384-well white assay plates (Corning, Cat 3570) at a final volume of 40 µL and a density of 20,000 cells/well before overnight incubation at 37° C. and 5% CO2. The following day media was manually ejected from the 384-well assay plate and replaced with 10 μL GloSensor substrate (Promega, Cat E1291) prepared in pH 8.0 assay buffer (1×HBSS, 10 mM HEPES, 10 mM MOPS). Cells were incubated with this solution for 60 minutes at room temperature in the dark. Test compounds or an equivalent volume of DMSO (vehicle) were added to compounds plates to create a 9-point, half-log concentration series for each compound with a maximum final assay concentration of 50 μM and a consistent final DMSO concentration of 0.5%. Assay buffer with 0.1% BSA and 0.01% ascorbic acid was prepared at three pHs: pH 8.0, pH 5.5 and pH 4.5. pH 8.0 and 4.5 were added to the compound plate as maximum and minimum effect controls whilst pH 5.5 was added to all compound wells to stimulate GPR68 to a level corresponding to […] of maximal stimulation after addition to the cells already in pH 8.0 (assay acceptance criteria range 70-90%). DMSO/Compound and buffer was added to the plated cells containing the GloSensor substrate and incubated for 15 minutes at room temperature before being read on a microplate reader (BMG PHERAstar, optic module LUM Plus with Gain 3600). Data was exported and analysed in excel and Graphpad prism (version 9). Assay QC acceptance criteria required the maximum and minimum controls to return a Z′≥0.5, the EC80 to be 80%±10% of expected and the reference ligand pIC50 to be within one-half-log unit of its historical IC50. Percent inhibition was calculated using the mean EC80 (pH 5.5) and mean minimum effect control (pH 8.0). Data were plotted as percentage inhibition, average±SEM. IC50, Emax, Emin, Actual max, actual min, R^2 and fit confidence were calculated using Graphpad Prism's sigmoidal dose-response function.

| IC50 [nM] | SMILES |
| --- | --- |
| 50 to 500 | NC(=O)c1c(C2CCCO2)nn2c(C(=O)N[C@H]3C[C@@H](OC(F)(F)F)C3)ccnc12 (stereo partly drawn) [Compound 203, 2-tetrahydrofuran-2-yl-N7-[cis-3-(trifluoromethoxy)cyclobutyl]pyrazolo[1,5-a]pyrimidine-3,7-dicarboxamide] |
| < 50 | COCc1nn2c(C(=O)NC3Cc4ccccc4C3)cc(C)nc2c1C(N)=O [Compound 227, N7-indan-2-yl-2-(methoxymethyl)-5-methyl-pyrazolo[1,5-a]pyrimidine-3,7-dicarboxamide] |
| < 50 | COCc1nc2c(C(=O)NC3CCC(F)(F)CC3)ccnn2c1C(N)=O [Compound 109, N8-(4,4-difluorocyclohexyl)-2-(methoxymethyl)imidazo[1,2-b]pyridazine-3,8-dicarboxamide] |
| < 50 | COCc1nn2c(C(=O)NC3CC(F)(F)c4ccccc43)cc(C)nc2c1C(N)=O (stereo not drawn) [Compound 232, N7-(3,3-difluoroindan-1-yl)-2-(methoxymethyl)-5-methyl-pyrazolo[1,5-a]pyrimidine-3,7-dicarboxamide] |
| 50000 to 100000 | CN(C)CCNc1nn2c(C(=O)NC3Cc4ccccc4C3)ccnc2c1C(N)=O [Compound 23, 2-[2-(dimethylamino)ethylamino]-N7-indan-2-yl-pyrazolo[1,5-a]pyrimidine-3,7-dicarboxamide] |
| 50 to 500 | COCc1nc2c(C(=O)NC3CCC(F)(F)CC3)ncnn2c1C(N)=O [Compound 212, N4-(4,4-difluorocyclohexyl)-6-(methoxymethyl)imidazo[2,1-f][1,2,4]triazine-4,7-dicarboxamide] |
| < 50 | COCc1nn2c(C(=O)NC3CCC(F)(F)c4ccccc43)ccnc2c1C(N)=O (stereo not drawn) [Compound 116, N7-(4,4-difluorotetralin-1-yl)-2-(methoxymethyl)pyrazolo[1,5-a]pyrimidine-3,7-dicarboxamide] |
| < 50 | COCc1nn2c(C(=O)NC3CCC(F)(F)c4cc(F)ccc43)ccnc2c1C(N)=O (stereo not drawn) [Compound 239, 2-(methoxymethyl)-N7-(4,4,6-trifluorotetralin-1-yl)pyrazolo[1,5-a]pyrimidine-3,7-dicarboxamide] |
| < 50 | COCc1nn2c(C(=O)NC3CCC(F)(F)c4ccccc43)ccnc2c1C(N)=O (single isomer, unassigned) [Compound 175, N7-[-4,4-difluorotetralin-1-yl]-2-(methoxymethyl)pyrazolo[1,5-a]pyrimidine-3,7-dicarboxamide] |
| 50 to 500 | COCc1nn2c(C(=O)N[C@H]3C[C@@H](OC(F)(F)F)C3)cc(C)nc2c1C(N)=O [Compound 206, 2-(methoxymethyl)-5-methyl-N7-[cis-3-(trifluoromethoxy)cyclobutyl]pyrazolo[1,5-a]pyrimidine-3,7-dicarboxamide] |
| < 50 | COCc1nn2c(C(=O)NC3CCOc4cc(F)c(F)cc43)ccnc2c1C(N)=O (stereo not drawn) [Compound 182, N7-(6,7-difluorochroman-4-yl)-2-(methoxymethyl)pyrazolo[1,5-a]pyrimidine-3,7-dicarboxamide] |
| < 50 | NC(=O)c1c(C2CC2)nn2c(C(=O)NC3CCC(F)(F)CC3)ccnc12 [Compound 135, 2-cyclopropyl-N7-(4,4-difluorocyclohexyl)pyrazolo[1,5-a]pyrimidine-3,7-dicarboxamide] |
| 50 to 500 | Cc1cc(C(=O)NC2CC(F)(F)C2)n2nc(C)c(C(N)=O)c2n1 [Compound 42, N7-(3,3-difluorocyclobutyl)-2,5-dimethyl-pyrazolo[1,5-a]pyrimidine-3,7-dicarboxamide] |

Second part, the compound before the results:

| SMILES | IC50 [nM] |
| --- | --- |
| NC(=O)c1c(C2CC2)nc2c(C(=O)NC3Cc4cccnc4C3)ccnn12 (stereo not drawn) [Compound 163, 2-cyclopropyl-N8-(6,7-dihydro-5H-cyclopenta[b]pyridin-6-yl) imidazo[1,2-b]pyridazine-3,8-dicarboxamide] | < 50 |
| NC(=O)c1cnn2c(C(=O)NC3Cc4cccc(-c5ccccn5)c4C3)ccnc12 (stereo not drawn) [Compound 17, N7-[4-(2-pyridyl)indan-2-yl]pyrazolo[1,5-a]pyrimidine-3,7-dicarboxamide] | 50000 to 100000 |
| COCc1nn2c(C(=O)NC3COc4ccccc43)ccnc2c1C(N)=O (stereo not drawn) [Compound 75, N7-(2,3-dihydrobenzofuran-3-yl)-2-(methoxymethyl)pyrazolo[1,5-a]pyrimidine-3,7-dicarboxamide] | < 50 |
| COCc1nn2c(C(=O)NCc3ccccc3OC)ccnc2c1C(N)=O [Compound 199, 2-(methoxymethyl)-N7-[(2-methoxyphenyl)methyl]pyrazolo[1,5-a]pyrimidine-3,7-dicarboxamide] | 50 to 500 |
| NC(=O)c1c(C2CC2)nn2c(C(=O)N[C@H]3CCS(=O)(=O)c4ccccc43)ccnc12 [Compound 236, 2-cyclopropyl-N7-[(4S)-1,1-dioxo-3,4-dihydro-2H-thiochromen-4-yl]pyrazolo[1,5-a]pyrimidine-3,7-dicarboxamide] | < 50 |
| COCc1nc2c(C(=O)NC3CCS(=O)(=O)c4ccccc43)ccnn2c1C(N)=O (stereo not drawn) [Compound 221, N8-(1,1-dioxo-3,4-dihydro-2H-thiochromen-4-yl)-2-(methoxymethyl)imidazo[1,2-b]pyridazine-3,8-dicarboxamide] | 50 to 500 |
| COCc1nc2c(C(=O)NC3CC(F)(F)c4ccccc43)ccnn2c1C(N)=O (stereo not drawn) [Compound 107, N8-(3,3-difluoroindan-1-yl)-2-(methoxymethyl)imidazo[1,2-b]pyridazine-3,8-dicarboxamide] | < 50 |
| O=C(NC1Cc2ccccc2C1)c1cccc2c(-c3ncco3)cnn12 [Compound 31, N-indan-2-yl-3-oxazol-2-yl-pyrazolo[1,5-a]pyridine-7-carboxamide] | 5000 to 50000 |
| COCc1nn2c(C(=O)N[C@@H]3CCCc4ccccc43)ccnc2c1C(N)=O [Compound 74, 2-(methoxymethyl)-N7-[(1R)-tetralin-1-yl]pyrazolo[1,5-a]pyrimidine-3,7-dicarboxamide] | < 50 |
| NC(=O)c1c(C2CC2)nc2c(C(=O)NC3CS(=O)(=O)c4ccccc43)ccnn12 (stereo not drawn) [Compound 222, 2-cyclopropyl-N8-(1,1-dioxo-2,3-dihydrobenzothiophen-3-yl) imidazo[1,2-b]pyridazine-3,8-dicarboxamide] | < 50 |
| COCc1nn2c(C(=O)Nc3cnc4c(F)cccc4c3)ccnc2c1C(N)=O [Compound 117, N7-(8-fluoro-3-quinolyl)-2-(methoxymethyl)pyrazolo[1,5-a]pyrimidine-3,7-dicarboxamide] | < 50 |
| COCc1nn2c(C(=O)NC3(C)Cc4ccccc4C3)ccnc2c1C(N)=O [Compound 121, 2-(methoxymethyl)-N7-(2-methylindan-2-yl)pyrazolo[1,5-a]pyrimidine-3,7-dicarboxamide] | 50 to 500 |

Same assay, conditions: hGPR68 IC50, HEK293T cells transiently expressing hGPR68, antagonism of pH 5.5 stimulated cAMP, 15 min

| IC50 [nM] | SMILES |
| --- | --- |
| 5000 to 50000 | CC(C)OCc1nn2c(C(=O)NC3CC(F)(F)C3)ccnc2c1C(N)=O [Compound 28, N7-(3,3-difluorocyclobutyl)-2-(isopropoxymethyl)pyrazolo[1,5-a]pyrimidine-3,7-dicarboxamide] |
| 50 to 500 | NC(=O)c1c(C2CCCO2)nn2c(C(=O)NC3Cc4ccccc4C3)ccnc12 (stereo not drawn) [Compound 44, N7-indan-2-yl-2-tetrahydrofuran-2-yl-pyrazolo[1,5-a]pyrimidine-3,7-dicarboxamide] |
